In ChEMBL document CHEMBL2412991, “Catalytic asymmetric total synthesis of (S)-(-)-zearalenone, a novel lipoxygenase inhibitor” (Bioorg Med Chem, 2013):

Molecular target: T1, Seed linoleate 13S-lipoxygenase-1 (Glycine max, UniProt P08170)
T1 sequence (P08170 whole entry): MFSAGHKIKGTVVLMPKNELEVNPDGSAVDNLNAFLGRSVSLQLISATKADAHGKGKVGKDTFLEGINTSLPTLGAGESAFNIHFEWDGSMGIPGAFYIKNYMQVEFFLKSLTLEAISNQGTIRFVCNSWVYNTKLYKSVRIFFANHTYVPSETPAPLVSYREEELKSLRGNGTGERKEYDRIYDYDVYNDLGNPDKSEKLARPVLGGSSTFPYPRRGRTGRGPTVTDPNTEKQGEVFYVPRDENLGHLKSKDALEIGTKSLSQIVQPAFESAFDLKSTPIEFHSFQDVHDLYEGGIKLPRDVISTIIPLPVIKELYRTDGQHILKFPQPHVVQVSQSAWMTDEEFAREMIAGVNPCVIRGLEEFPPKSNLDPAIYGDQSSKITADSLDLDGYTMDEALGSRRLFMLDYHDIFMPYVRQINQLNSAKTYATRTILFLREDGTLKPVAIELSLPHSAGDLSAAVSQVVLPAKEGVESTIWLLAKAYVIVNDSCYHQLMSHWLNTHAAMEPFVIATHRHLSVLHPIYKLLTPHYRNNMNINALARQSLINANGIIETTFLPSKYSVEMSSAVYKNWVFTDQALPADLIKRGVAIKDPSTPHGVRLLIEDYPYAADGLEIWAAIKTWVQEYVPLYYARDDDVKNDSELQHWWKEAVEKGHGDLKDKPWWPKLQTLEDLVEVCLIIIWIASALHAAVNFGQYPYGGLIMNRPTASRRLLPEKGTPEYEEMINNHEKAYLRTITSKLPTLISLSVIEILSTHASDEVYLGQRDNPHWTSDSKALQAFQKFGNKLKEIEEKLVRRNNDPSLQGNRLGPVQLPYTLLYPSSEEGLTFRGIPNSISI
Assay: Inhibition of soybean lipoxygenase-1 assessed as inhibition of conversion of linoleic acid into hydroperoxy […] acid preincubated for 10 mins before substrate addition measured over 20 mins by spectrophotometric assay

Compound: C[C@H]1CCCC(=O)CCC/C=C/c2cc(O)cc(O)c2C(=O)O1 [ZEARALENONE]
- IC50: 51 µM
